Legend:
[1] = Dynamic vapor sorption (DVS) analysis; type: physicochemical; conditions: relative humidity between 0-95 percent, Form I/Pattern A
Protocol: Dynamic Vapor Soprtion (DVS) analysis was performed using an Aquadyne DVS-2 gravimetric water sorption analyzer. The relative humidity was adjusted between 2-95% and the weight of the sample was continuously monitored and recorded with respect to the relative humidity and time.

[2] = Thermal gravimetric analysis (TGA); type: physicochemical; conditions: from 35 to 150° C.; Form I
Protocol: Thermal Gravimetric Analysis (TGA) data were collected using a TA Instruments TGA Q500. Approximately, 5-10 mg samples were placed in an open, pre-tared aluminum sample pan and scanned from 25 to 300° C. at a rate of 10° C./min using a nitrogen purge at 60 mL/min.

Compound: O=C(CCCCCCNC(=O)c1cnc(N(c2ccccc2)c2ccccc2Cl)nc1)NO [Compound (I), 2-((2-chlorophenyl)(phenyl)amino)-N-(7-(hydroxyamino)-7-oxoheptyl)pyrimidine-5-carboxamide]
- change in the crystalline form ([1]; after DVS): no change in the crystalline form
- moisture uptake [1]: less than 0.2%
- weight loss [2]: less than 0.1%
